# Source: PMC2768111 (British Journal of Cancer, 2009)
# pIC50: −log10 of the molar value. Read-outs that look alike come from different tables or passages of the source.
# Legend:
# TAO2 = molecular target: T1, TAO2 (Homo sapiens, UniProt Q9UL54); experiment: IC50 Profiler Express kinase assay; type: biochemical
# T1 sequence (Q9UL54 1-1235): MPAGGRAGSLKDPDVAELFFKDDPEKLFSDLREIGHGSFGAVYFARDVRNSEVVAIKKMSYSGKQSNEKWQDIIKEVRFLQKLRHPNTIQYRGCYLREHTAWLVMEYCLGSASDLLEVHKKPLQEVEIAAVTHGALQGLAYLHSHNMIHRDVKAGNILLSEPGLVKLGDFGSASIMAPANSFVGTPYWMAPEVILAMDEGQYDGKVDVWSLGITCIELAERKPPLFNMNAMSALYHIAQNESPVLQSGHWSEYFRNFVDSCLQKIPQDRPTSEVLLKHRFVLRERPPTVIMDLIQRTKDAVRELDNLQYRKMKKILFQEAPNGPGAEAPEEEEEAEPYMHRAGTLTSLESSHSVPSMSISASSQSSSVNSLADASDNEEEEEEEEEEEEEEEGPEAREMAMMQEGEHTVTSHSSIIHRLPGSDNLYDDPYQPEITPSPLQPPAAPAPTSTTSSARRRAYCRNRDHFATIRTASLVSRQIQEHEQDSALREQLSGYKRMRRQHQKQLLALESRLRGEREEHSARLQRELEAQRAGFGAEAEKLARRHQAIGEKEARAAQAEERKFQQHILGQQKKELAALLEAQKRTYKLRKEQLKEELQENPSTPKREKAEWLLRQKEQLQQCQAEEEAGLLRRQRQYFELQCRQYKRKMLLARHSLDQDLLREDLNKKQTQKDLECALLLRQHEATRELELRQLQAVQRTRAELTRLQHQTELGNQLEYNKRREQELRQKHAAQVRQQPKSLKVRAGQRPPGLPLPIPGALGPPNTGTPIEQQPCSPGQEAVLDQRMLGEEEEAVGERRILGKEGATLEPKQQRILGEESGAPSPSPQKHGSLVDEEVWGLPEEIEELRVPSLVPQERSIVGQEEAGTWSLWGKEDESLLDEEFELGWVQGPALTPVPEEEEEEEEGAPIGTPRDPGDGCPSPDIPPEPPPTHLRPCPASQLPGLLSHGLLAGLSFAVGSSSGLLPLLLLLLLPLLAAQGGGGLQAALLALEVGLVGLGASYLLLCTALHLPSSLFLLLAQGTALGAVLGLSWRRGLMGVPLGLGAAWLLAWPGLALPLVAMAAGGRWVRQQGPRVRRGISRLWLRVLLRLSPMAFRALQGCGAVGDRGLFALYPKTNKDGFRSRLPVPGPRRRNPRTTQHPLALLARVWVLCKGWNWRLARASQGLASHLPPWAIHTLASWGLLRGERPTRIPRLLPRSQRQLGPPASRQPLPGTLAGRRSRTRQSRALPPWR
# PTK5 = PTK5 (Homo sapiens, UniProt P42685); experiment: IC50 Profiler Express kinase assay; type: biochemical
# [1] = test system: human bone marrow progenitor cells; experiment: Bone marrow progenitor growth; type: cell-based; conditions: CFU-GM, 240 h
# PTK5, sequence (P42685 whole entry): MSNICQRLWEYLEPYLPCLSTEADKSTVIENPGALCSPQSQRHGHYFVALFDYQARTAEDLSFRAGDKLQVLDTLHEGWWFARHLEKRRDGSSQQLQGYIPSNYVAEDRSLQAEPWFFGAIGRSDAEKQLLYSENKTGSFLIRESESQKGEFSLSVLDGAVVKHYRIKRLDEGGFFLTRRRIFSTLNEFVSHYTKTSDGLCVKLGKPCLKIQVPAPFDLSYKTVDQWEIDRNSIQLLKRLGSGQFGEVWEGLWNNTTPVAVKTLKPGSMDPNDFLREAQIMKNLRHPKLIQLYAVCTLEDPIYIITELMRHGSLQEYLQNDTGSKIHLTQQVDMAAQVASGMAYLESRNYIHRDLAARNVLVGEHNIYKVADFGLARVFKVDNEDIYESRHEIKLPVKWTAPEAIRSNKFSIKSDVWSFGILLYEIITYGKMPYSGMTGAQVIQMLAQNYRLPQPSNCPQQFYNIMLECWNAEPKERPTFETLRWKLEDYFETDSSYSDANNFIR
pIC50 (TAO2),pIC50 (PTK5),Compound,"pIC50 ([1]; read-out: IC50, GM-CSF–driven CFU-GM formation)","pIC50 ([1]; read-out: IC50, CFU-GM formation induced by GM-CSF)"
6.42,7.01,Cc1ccc(Nc2nccc(N(C)c3ccc4c(C)n(C)nc4c3)n2)cc1S(N)(=O)=O [Pazopanib],6.00,
,,CCN(CC)CCNC(=O)c1c(C)[nH]c(/C=C2\C(=O)Nc3ccc(F)cc32)c1C [Sunitinib],,7.49
